According to PMC10728852, “In Vitro and In Vivo Antidiabetic, α-Glucosidase Inhibition and Antibacterial Activities of Three Brown Algae, Polycladia myrica, Padina antillarum, and Sargassum boveanum, and a Red Alga, Palisada perforata from the Persian Gulf” (Iranian Journal of Pharmaceutical Research : IJPR, 2023):

Molecular target: T1, yeast's α-glucosidase
T1 construct: gene MAL12; yeast enzyme
Assay: colorimetric α-glucosidase inhibition assay
Type: biochemical, Saccharomyces cerevisiae
Conditions: standard drug; substrate and buffer only in supplement
Excerpt: colorimetric α-glucosidase inhibition assay on yeast's α-glucosidase

## C[C@H]1O[C@H](O[C@H]2[C@H](O)[C@@H](O)[C@@H](O[C@H]3[C@H](O)[C@@H](O)C(O)O[C@@H]3CO)O[C@@H]2CO)[C@H](O)[C@@H](O)[C@@H]1N[C@H]1C=C(CO)[C@@H](O)[C@H](O)[C@H]1O (stereo partly shown) [Acarbose]
  Enzyme Inhibition IC50: 160.15 ± 27.52 mg/L
